Data taken from ChEMBL document CHEMBL1201862, “PubChem BioAssay data set” (2004).
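In this assay, cells in 96-well plates receive the compound at five concentrations for 48 hours. Endpoints are linearly interpolated between the surrounding concentrations. GI50 marks 50% less growth.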 The source made the active and inactive calls. No stated cut-off is given here; in the data, active = GI50 up to about 1.1 µM and inactive = higher.

Experiments:
Test in all cases: inhibition of tumour cell growth, NCI panel, 48 h
786-0 = system: 786-0
A498 = system: A498
A549 = system: A549
ACHN = system: ACHN
BT-549 = system: BT-549
CAKI-1 = system: CAKI-1
CCRF-CEM = system: CCRF-CEM
COLO 205 = system: COLO 205
DU-145 = system: DU-145
EKVX = system: EKVX
HCC 2998 = system: HCC 2998
HCT-116 = system: HCT-116
HCT-15 = system: HCT-15
HL-60 = system: HL-60
HOP-92 = system: HOP-92
HT-29 = system: HT-29
Hs-578T = system: Hs-578T
IGROV-1 = system: IGROV-1
K562 = system: K562
KM12 = system: KM12
LOX IMVI = system: LOX IMVI
M14 = system: M14
MCF7 = system: MCF7
MDA-MB-231 = system: MDA-MB-231
MDA-MB-435 = system: MDA-MB-435
MDA-N = system: MDA-N
MOLT-4 = system: MOLT-4
Malme-3M = system: Malme-3M
NCI-H226 = system: NCI-H226
NCI-H23 = system: NCI-H23
NCI-H460 = system: NCI-H460
NCI-H522 = system: NCI-H522
NCI/ADR-RES = system: NCI/ADR-RES
OVCAR-3 = system: OVCAR-3
OVCAR-4 = system: OVCAR-4
OVCAR-5 = system: OVCAR-5
OVCAR-8 = system: OVCAR-8
PC-3 = system: PC-3
RPMI-8226 = system: RPMI-8226
SF-268 = system: SF-268
SF-295 = system: SF-295
SF-539 = system: SF-539
SK-MEL-28 = system: SK-MEL-28
SK-MEL-2 = system: SK-MEL-2
SK-MEL-5 = system: SK-MEL-5
SK-OV-3 = system: SK-OV-3
SN12C = system: SN12C
SNB-19 = system: SNB-19
SR = system: SR
SW-620 = system: SW-620
TK-10 = system: TK-10
U-251 = system: U-251
UACC-257 = system: UACC-257
UACC-62 = system: UACC-62
UO-31 = system: UO-31
HOP-62 = system: HOP-62

COc1ccc(N2C(=O)CSC2c2cc(OC)c(OC)c(OC)c2)cc1 (stereo unspecified)
GI50 (786-0): 21.4 µM (inactive)
GI50 (A498): 29 µM (inactive)
GI50 (A549): 25.5 µM (inactive)
GI50 (ACHN): 20.7 µM (inactive)
GI50 (BT-549): 23.2 µM (inactive)
GI50 (CAKI-1): 25 µM (inactive)
GI50 (CCRF-CEM): 7.23 µM (inactive)
GI50 (COLO 205): 25.4 µM (inactive)
GI50 (DU-145): 14.5 µM (inactive)
GI50 (EKVX): 28.4 µM (inactive)
GI50 (HCC 2998): 16.7 µM (inactive)
GI50 (HCT-116): 16.8 µM (inactive)
GI50 (HCT-15): 16 µM
GI50 (HL-60): 17.5 µM (inactive)
GI50 (HOP-92): 54.6 µM (inactive)
GI50 (HT-29): 21.6 µM (inactive)
GI50 (Hs-578T): 48.6 µM (inactive)
GI50 (IGROV-1): 33.7 µM (inactive)
GI50 (K562): 11.9 µM (inactive)
GI50 (KM12): 15.1 µM (inactive)
GI50 (LOX IMVI): 23.1 µM (inactive)
GI50 (M14): 18.6 µM (inactive)
GI50 (MCF7): 37.6 µM (inactive)
GI50 (MDA-MB-231): 26.5 µM (inactive)
GI50 (MDA-MB-435): 10.9 µM (inactive)
GI50 (MDA-N): 9.68 µM (inactive)
GI50 (MOLT-4): 21.4 µM (inactive)
GI50 (Malme-3M): 23.7 µM (inactive)
GI50 (NCI-H226): 62.7 µM (inactive)
GI50 (NCI-H23): 25.3 µM (inactive)
GI50 (NCI-H460): 18.9 µM (inactive)
GI50 (NCI-H522): 14.1 µM (inactive)
GI50 (NCI/ADR-RES): 22.2 µM (inactive)
GI50 (OVCAR-3): 25.5 µM (inactive)
GI50 (OVCAR-4): 42.5 µM (inactive)
GI50 (OVCAR-5): 22.3 µM (inactive)
GI50 (OVCAR-8): 29.9 µM (inactive)
GI50 (PC-3): 25.1 µM (inactive)
GI50 (RPMI-8226): 27.5 µM (inactive)
GI50 (SF-268): 31.8 µM (inactive)
GI50 (SF-295): 22.6 µM (inactive)
GI50 (SF-539): 32.8 µM (inactive)
GI50 (SK-MEL-28): 33.4 µM (inactive)
GI50 (SK-MEL-2): 33.9 µM (inactive)
GI50 (SK-MEL-5): 20.9 µM (inactive)
GI50 (SK-OV-3): 24.2 µM (inactive)
GI50 (SN12C): 25.1 µM (inactive)
GI50 (SNB-19): 23.2 µM (inactive)
GI50 (SR): 5.41 µM (inactive)
GI50 (SW-620): 34 µM (inactive)
GI50 (TK-10): 43.2 µM (inactive)
GI50 (U-251): 18.9 µM (inactive)
GI50 (UACC-257): 12.5 µM (inactive)
GI50 (UACC-62): 4.71 µM (inactive)
GI50 (UO-31): 11.8 µM (inactive)

O=C(O)Cc1ccc(-n2nnc3c(=O)[nH][nH]c(=O)c32)cc1
GI50 (786-0): > 100 µM (inactive)
GI50 (A549): > 100 µM (inactive)
GI50 (ACHN): > 100 µM (inactive)
GI50 (BT-549): > 100 µM (inactive)
GI50 (CAKI-1): > 100 µM (inactive)
GI50 (CCRF-CEM): > 100 µM (inactive)
GI50 (COLO 205): > 100 µM (inactive)
GI50 (DU-145): > 100 µM (inactive)
GI50 (EKVX): > 100 µM (inactive)
GI50 (HCC 2998): > 100 µM (inactive)
GI50 (HCT-116): > 100 µM (inactive)
GI50 (HCT-15): > 100 µM
GI50 (HL-60): > 100 µM (inactive)
GI50 (HOP-62): > 100 µM (inactive)
GI50 (HOP-92): > 100 µM (inactive)
GI50 (HT-29): > 100 µM (inactive)
GI50 (K562): > 100 µM (inactive)
GI50 (KM12): > 100 µM (inactive)
GI50 (LOX IMVI): > 100 µM (inactive)
GI50 (M14): > 100 µM (inactive)
GI50 (MCF7): > 100 µM (inactive)
GI50 (MDA-MB-231): > 100 µM (inactive)
GI50 (MDA-MB-435): > 100 µM (inactive)
GI50 (MDA-N): > 100 µM (inactive)
GI50 (MOLT-4): > 100 µM (inactive)
GI50 (Malme-3M): > 100 µM (inactive)
GI50 (NCI-H23): > 100 µM (inactive)
GI50 (NCI-H460): > 100 µM (inactive)
GI50 (NCI/ADR-RES): > 100 µM (inactive)
GI50 (OVCAR-3): > 100 µM (inactive)
GI50 (OVCAR-4): > 100 µM (inactive)
GI50 (OVCAR-5): > 100 µM (inactive)
GI50 (OVCAR-8): > 100 µM (inactive)
GI50 (PC-3): > 100 µM (inactive)
GI50 (RPMI-8226): > 100 µM (inactive)
GI50 (SF-295): > 100 µM (inactive)
GI50 (SK-MEL-28): > 100 µM (inactive)
GI50 (SK-MEL-2): > 100 µM (inactive)
GI50 (SK-MEL-5): > 100 µM (inactive)
GI50 (SN12C): > 100 µM (inactive)
GI50 (SNB-19): > 100 µM (inactive)
GI50 (SR): > 100 µM (inactive)
GI50 (TK-10): > 100 µM (inactive)
GI50 (U-251): > 100 µM (inactive)
GI50 (UACC-257): > 100 µM (inactive)
GI50 (UO-31): > 100 µM (inactive)
